Measurements published in US8188102B2, “Amide derivative for inhibiting the growth of cancer cells” (Hanmi Holdings Co., Ltd., priority 2007, dated 2012).
Like-named read-outs stand apart in the source and are kept apart here.

What was measured:
[1] = system: A431 skin cancer cell line; test: Cancer cell growth inhibition, A431 (SRB); conditions: Homo sapiens, A-431, 72 h, read-out: ID50 (nM) A431
EGFR = molecular target: T1, EGFR (Homo sapiens, UniProt P00533); test: Prolongation study in A431 cells (EGFR phosphorylation inhibition); assay type: cell-based; conditions: A-431, 1 μM for 4 hrs, then washed, EGF 100 ng/ml
T1 construct: A skin cancer cell line, A431 (ATCC: CRL-1555), was used; endogenous in cells; host or cells: A431 (ATCC: CRL-1555)
Protocol: A skin cancer cell line, A431 (ATCC: CRL-1555), was used to test the degrees of the inventive compounds in inhibiting EGFR's phosphorylation and the prolongation of ability to inhibit it thereof.
The cell line was incubated in a culture flask at 37° C. under 95% air and 5% CO2 using a culture medium containing DMEM, 10% FBS and 1% PS. When more than 90% of the total volume of the culture flask became filled with cells, the cultured cell solution was subject to secondary incubation and was poured to each well of a 6-well plate to the extent of 500,000 cells/well. After 24 hrs, the cells were separated from the solution, washed with PBS, and incubated in a culture medium containing DMEM, 0.1% FBS and 1% PS for 16 hrs. The compounds obtained in Examples 1, 17, 19 and 36, and Tarceva as EGFR phosphorylation inhibitors were each added to the cell-containing well to a concentration of 1 μM. After 4 hrs, the cells were separated from the solution, washed 4 times with PBS after every 0, 2, 4 and 8 hrs, and incubated in a culture medium containing DMEM, 0.1% FBS and 1% PS. […] Just before the completion of the reaction, the cultured cell solution was treated with a 100 ng/ml concentration of EGF (Sigma, Cat No. E9644) for 5 mins to induce the activation of EGFR. After the completion of the reaction, the well plate holding the cultured cells was stored at −70° C. In control groups, the replacement of the medium was performed instead of the addition of the EGFR phosphorylation inhibitor, wherein the induction of EGFR activation using EGF was made only in a positive control group and not made in a negative control group.
For Western blot and enzyme immune measuring (ELISA) methods, the well plate stored at −70° C. was allowed to melt to room temperature, and then protein was extracted from the cells in the well plate using a protein extract buffer. The extraction of the protein was performed as follows: 250 μl of the protein extract buffer (Phosphosafe extraction reagent, Calbiochem, Cat No. 71296-3) comprising protease inhibitor cocktail was added to each cell-containing well, which was stirred at room temperature for 5 mins. The cells were collected using a cell scraper and put in an 1.5 ml tube, which was centrifuged at a speed of 16,000×g for 5 mins. The upper layer thus obtained was separated, of which the protein content was determined by a protein assay kit (Bio-rad, Cat No. 500-0116). The protein extracted was diluted with PBS to a concentration of 0.8 mg/ml.
A human EGFR (py1173) immunoassay kit (Biosource, Cat No. KHR9071) was used in the enzyme immune measuring method. 100 μl of the sample which was diluted by 4 folds with a standard dilution buffer in a kit was added to a strip well, which was incubated at a 4° C. refrigerator overnight. The cultured cells was separated therefrom and washed 4 times with 200 μl of a washing buffer. 100 μl of the resulting primary antibody (anti-human EGFR [pY1173]) was put to each strip well, incubated at 37° C. for 1 hr, and washed 4 times with 200 μl of a washing buffer. The resulting secondary antibody (anti-rabbit IgG-HRP) was diluted by 100 folds with an HRP dilution buffer in a kit. 100 μl of the dilute was put to each strip well, incubated at 37° C. for 30 mins, and washed 4 times with 200 μl of the washing buffer. 100 μl of an HRP substrate in a kit was put to each strip well and incubated in a darkroom for 10 to 30 mins. 100 μl of a reaction stop solution was added thereto to terminate the reaction, and then, the absorbance at 450 nm was observed.
Electrophoresis and Western blot methods were conducted based on the conventional methods in the following: An LDS buffer was added to each sample, which was allowed to boil at 70° C. for 10 mins. 10 μl of the resulting solution was loaded to a 12-well gel (Nupage 4˜12% Bis-tris gel, Invitrogen), followed by 120 volt-electrophoresis in a buffer (MOPS electrophoresis buffer, Invitrogen, Cat No. NP0006-1) for 2 hrs. […]

[2] = system: SK-Br3 breast cancer cell line; test: Cancer cell growth inhibition, SK-Br3 (SRB); conditions: Homo sapiens, SK-BR-3, 72 h, read-out: ID50 (nM) SK-Br3
[3] = system: SW-620 colon/rectal cancer cell line; test: Cancer cell growth inhibition, SW-620 (SRB); conditions: Homo sapiens, SW-620, 72 h, read-out: IC50 (nM) SW-620
[4] = molecular target: EGFR (EGFR type 1 kinase, Upstate) (Homo sapiens, UniProt P00533); test: Inhibition of EGFR enzyme (fluorescence polarization kinase assay); conditions: read-out: IC50 (nM) EGFR; EGFR type 1 kinase, ATP 50 μM
Protocol: 10 μl of an EGFR (EGFR type 1 kinase, Upstate, 10 ng/μl) was added to each well of a 96-well plate. […] The calculation and analysis of IC50 were carried out by using Microsoft Excel.

EGFR T790M kinase = EGFR T790M kinase (Homo sapiens, UniProt P00533, T790M); test: Inhibition of EGFR mutant enzyme (T790M); conditions: read-out: IC50 (nM) T790M; EGFR T790M kinase
[5] = system: H1975 lung cancer cell line; test: Cancer cell growth inhibition, H1975 (celltiter); conditions: Homo sapiens, NCI-H1975, 48 h, read-out: IC50 (nM) H1975
Protocol: The medium was removed from each well of the 96-well plate.
In case of H1975, the cells were diluted with a culture medium to a concentration of 50,000 cells/ml. 100 μl of the diluted cell solution was added to each well of a 96-well plate, and, after 1 day, was washed with a mixture of RPMI, 0.1% FBS and 1% penicillin-streptomycin (PS), followed by replacement of the medium. The plate was allowed to be kept overnight and be treated to various concentrations under the same medium condition for 48 hrs. Similarly to an MTT assay, 15 μl of a celltiter one shot solution (Promega) was added to each well, which was incubated for 2 to 3 hrs, and, then, the absorbance at 490 nm was determined.

[6] = 0 hr after washing, read-out: EGFR phosphorylation inhibition in A431 cell line (%) 0 hr Avg.
[7] = 8 hrs after washing, read-out: EGFR phosphorylation inhibition in A431 cell line (%) 8 hrs Avg.
[8] = 24 hrs after washing, read-out: EGFR phosphorylation inhibition in A431 cell line (%) 24 hrs Avg.
[9] = 48 hrs after washing, read-out: EGFR phosphorylation inhibition in A431 cell line (%) 48 hrs Avg.
[10] = 72 hrs after washing, read-out: EGFR phosphorylation inhibition in A431 cell line (%) 72 hrs Avg.

Sequence of EGFR (EGFR type 1 kinase, Upstate) (P00533 25-1210): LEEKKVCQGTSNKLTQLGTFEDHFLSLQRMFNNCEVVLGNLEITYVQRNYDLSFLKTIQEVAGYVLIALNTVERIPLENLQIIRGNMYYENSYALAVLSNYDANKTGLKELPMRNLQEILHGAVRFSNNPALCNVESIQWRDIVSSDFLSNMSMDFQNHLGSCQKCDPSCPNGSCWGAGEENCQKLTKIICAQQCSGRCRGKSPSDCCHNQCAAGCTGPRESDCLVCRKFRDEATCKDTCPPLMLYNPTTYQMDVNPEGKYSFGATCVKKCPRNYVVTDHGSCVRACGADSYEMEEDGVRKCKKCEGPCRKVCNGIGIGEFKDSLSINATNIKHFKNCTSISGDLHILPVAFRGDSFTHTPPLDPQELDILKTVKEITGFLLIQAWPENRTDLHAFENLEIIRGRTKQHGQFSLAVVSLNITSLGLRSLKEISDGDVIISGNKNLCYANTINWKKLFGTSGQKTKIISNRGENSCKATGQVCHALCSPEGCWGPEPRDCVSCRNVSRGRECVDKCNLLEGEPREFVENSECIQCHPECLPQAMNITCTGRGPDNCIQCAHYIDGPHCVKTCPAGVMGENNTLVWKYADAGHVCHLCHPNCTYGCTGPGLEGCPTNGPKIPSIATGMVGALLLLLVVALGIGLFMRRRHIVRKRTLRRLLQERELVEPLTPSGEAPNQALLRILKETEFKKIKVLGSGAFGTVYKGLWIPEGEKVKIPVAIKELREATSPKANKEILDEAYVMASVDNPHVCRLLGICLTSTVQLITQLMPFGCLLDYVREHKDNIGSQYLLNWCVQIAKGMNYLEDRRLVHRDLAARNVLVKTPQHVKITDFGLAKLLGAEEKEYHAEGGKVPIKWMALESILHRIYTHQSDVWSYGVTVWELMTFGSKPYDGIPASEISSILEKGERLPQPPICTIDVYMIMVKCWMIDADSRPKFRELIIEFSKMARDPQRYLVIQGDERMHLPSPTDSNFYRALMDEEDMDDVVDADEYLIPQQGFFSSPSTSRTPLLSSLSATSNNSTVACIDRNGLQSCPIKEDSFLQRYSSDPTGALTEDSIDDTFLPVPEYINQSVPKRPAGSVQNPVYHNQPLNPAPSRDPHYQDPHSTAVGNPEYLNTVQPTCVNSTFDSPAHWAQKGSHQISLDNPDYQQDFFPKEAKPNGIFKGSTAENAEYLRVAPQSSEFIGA
T1 sequence (P00533 25-1210): as above
Sequence of EGFR T790M kinase (P00533 25-1210 T790M): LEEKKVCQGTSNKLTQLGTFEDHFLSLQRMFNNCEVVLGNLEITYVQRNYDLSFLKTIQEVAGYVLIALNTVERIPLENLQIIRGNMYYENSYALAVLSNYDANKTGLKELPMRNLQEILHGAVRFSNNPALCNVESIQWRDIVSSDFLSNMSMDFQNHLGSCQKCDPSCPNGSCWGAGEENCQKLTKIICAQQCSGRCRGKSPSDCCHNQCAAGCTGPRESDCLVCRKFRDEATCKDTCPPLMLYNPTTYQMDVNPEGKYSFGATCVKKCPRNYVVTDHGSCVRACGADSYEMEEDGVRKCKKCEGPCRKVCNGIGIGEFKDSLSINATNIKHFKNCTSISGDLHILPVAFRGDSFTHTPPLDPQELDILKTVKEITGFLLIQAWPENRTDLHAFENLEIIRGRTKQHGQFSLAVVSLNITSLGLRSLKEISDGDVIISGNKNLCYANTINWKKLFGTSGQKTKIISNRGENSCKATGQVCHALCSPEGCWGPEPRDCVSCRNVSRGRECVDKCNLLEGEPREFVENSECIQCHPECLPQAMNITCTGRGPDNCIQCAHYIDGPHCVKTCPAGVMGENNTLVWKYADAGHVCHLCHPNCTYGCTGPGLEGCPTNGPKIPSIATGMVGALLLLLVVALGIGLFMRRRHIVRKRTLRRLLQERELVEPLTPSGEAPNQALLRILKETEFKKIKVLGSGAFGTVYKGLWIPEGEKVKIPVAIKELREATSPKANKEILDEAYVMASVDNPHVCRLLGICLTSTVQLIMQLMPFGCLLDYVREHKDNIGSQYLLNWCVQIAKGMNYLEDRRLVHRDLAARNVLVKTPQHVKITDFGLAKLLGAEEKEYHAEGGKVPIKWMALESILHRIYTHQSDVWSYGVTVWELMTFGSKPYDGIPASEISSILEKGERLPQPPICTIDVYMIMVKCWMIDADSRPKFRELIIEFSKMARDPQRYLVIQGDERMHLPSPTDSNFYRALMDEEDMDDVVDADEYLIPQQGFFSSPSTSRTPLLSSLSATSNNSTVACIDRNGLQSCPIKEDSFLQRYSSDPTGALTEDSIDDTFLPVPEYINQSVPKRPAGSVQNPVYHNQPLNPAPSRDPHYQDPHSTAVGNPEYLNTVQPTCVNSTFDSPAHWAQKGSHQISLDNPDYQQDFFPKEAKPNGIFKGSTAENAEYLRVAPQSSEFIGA

Molecule `C=CC(=O)N1CC(Oc2cc3c(Nc4ccc(F)c(Cl)c4F)ncnc3cc2OC)C1` [Example 17, 1-(3-(4-(3-chloro-2,4-difluorophenylamino)-7-methoxyquinazolin-6-yloxy)azetidin-1-yl)pro-2-pen-1-one] has an IC50 [1] of 0.3 nM, an inhibition at 1 µM (EGFR; [6]) of 87% and an inhibition at 1 µM (EGFR; [7]) of 88%. The inhibition at 1 µM (EGFR; [8]) was 62%, the inhibition at 1 µM (EGFR; [9]) was 31% and the inhibition at 1 µM (EGFR; [10]) was 0%. For the same molecule, the IC50 [2] was 0.3 nM, the IC50 [3] was over 5000 nM and the IC50 [4] was 0.7 nM. The IC50 (EGFR T790M kinase) was 0.8 nM and the IC50 [5] was 1.5 nM.

`C=CC(=O)N1CCC(Oc2cc3c(Nc4ccc(F)c(Cl)c4F)ncnc3cc2OC)CC1` [Example 19, 1-(4-(4-(3-chloro-2,4-difluorophenylamino)-7-methoxyquinazolin-6-yloxy)piperidin-1-yl)pro-2-pen-1-one] showed an IC50 [1] of 0.3 nM, an inhibition at 1 µM (EGFR; [6]) of 81% and an inhibition at 1 µM (EGFR; [7]) of 86%. For the same molecule, the inhibition at 1 µM (EGFR; [8]) was 80%, the inhibition at 1 µM (EGFR; [9]) was 34% and the inhibition at 1 µM (EGFR; [10]) was 0%. It also gave an IC50 [2] of 0.3 nM, an IC50 [3] of over 5000 nM and an IC50 [4] of 1.1 nM. For the same molecule, the IC50 (EGFR T790M kinase) was 1.9 nM and the IC50 [5] was 1.3 nM.

With `C=CC(=O)N1CC[C@@H](Oc2cc3c(Nc4ccc(F)c(Cl)c4F)ncnc3cc2OC)C[C@@H]1C(=O)OC` [Example 133, (2R,4R)-methyl 1-acryloyl-4-(4-(3-chloro-2,4-difluorophenylamino)-7-methoxyquinazolin-6-yloxy)piperidin-2-carboxylate] the IC50 [1] was 0.7 nM, the IC50 [2] was 0.2 nM and the IC50 [3] was over 5000 nM. For the same molecule, the IC50 [4] was 4.4 nM, the IC50 (EGFR T790M kinase) was 1.7 nM and the IC50 [5] was 5.4 nM.

Work on `C=CC(=O)N1CC[C@@H](Oc2cc3c(Nc4ccc(F)c(Cl)c4F)ncnc3cc2OC)C[C@@H]1C(N)=O` [Example 135, (2R,4R)-1-acryloyl-4-(4-(3-chloro-2,4-difluorophenylamino)-7-methoxyquinazolin-6-yloxy)piperidin-2-carboxamide] yielded an IC50 [1] of 0.8 nM, an IC50 [2] of 0.2 nM and an IC50 [3] of over 5000 nM. It also gave an IC50 [4] of 4.1 nM, an IC50 (EGFR T790M kinase) of 0.7 nM and an IC50 [5] of 5.2 nM.
